Experimental data as given in article PMC7238232, “Acamprosate Is a Substrate of the Human Organic Anion Transporter (OAT) 1 without OAT3 Inhibitory Properties: Implications for Renal Acamprosate Secretion and Drug–Drug Interactions” (Pharmaceutics, 2020).
Marks after values point to notes of the source that are not given here.

What was measured:
TAUT = conditions: Caco-2 cells, preliminary data; cited from earlier work
HEK293-Flp-In mock cells = assay: CellTiter-Glo cell viability assay, mock cells; conditions: up to 3300 µM acamprosate; 3 h
B^0,+AT/rBAT = conditions: Caco-2 cells, preliminary data; cited from earlier work
OAT1 [1] = target: T1, OAT1 (Homo sapiens, UniProt Q4U2R8); assay: Drug-drug interaction (DDI) index calculation, OAT1; conditions: for DDI Index, PAH: acamprosate
T1 sequence (Q4U2R8 1-563): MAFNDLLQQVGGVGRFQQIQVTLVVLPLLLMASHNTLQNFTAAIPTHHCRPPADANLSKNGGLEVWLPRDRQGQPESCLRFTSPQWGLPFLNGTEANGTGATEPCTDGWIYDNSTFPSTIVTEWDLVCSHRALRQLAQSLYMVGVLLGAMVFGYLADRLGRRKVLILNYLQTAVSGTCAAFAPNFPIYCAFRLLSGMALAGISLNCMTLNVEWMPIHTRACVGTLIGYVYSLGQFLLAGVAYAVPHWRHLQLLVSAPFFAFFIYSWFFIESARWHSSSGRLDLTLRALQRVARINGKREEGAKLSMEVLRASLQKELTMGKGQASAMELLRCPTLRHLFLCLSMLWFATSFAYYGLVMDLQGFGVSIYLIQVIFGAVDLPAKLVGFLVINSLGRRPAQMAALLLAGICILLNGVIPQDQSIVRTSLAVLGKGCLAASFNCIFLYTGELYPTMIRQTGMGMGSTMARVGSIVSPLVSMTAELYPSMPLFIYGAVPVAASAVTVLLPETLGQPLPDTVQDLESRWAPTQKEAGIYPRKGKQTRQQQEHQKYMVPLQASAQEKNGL
Text: Input values for Cmax,u or C0,u calculated from clinical studies are listed in Appendix B, Table A1.

[2] = Physicochemical properties; conditions: assay pH 7.4
ASBT = conditions: Caco-2 cells, preliminary data; cited from earlier work
OAT1 [3] = target: T1, OAT1; assay: Acamprosate intracellular uptake and inhibition of uptake in HEK293-Flp-In OAT1 cells (LC/MS-MS); type: cell-based; parameters: expressed in transfected cells; host or cells: HEK293-Flp-In
Text: The obtained intracellular amounts (pmol) were normalized to the assay time (min) and cell surface area (cm^2) or protein amount (mg protein) to obtain a term hereafter referred to as uptake rate. The uptake rate of acamprosate as a function of concentration was fitted to a Michaelis–Menten type equation which includes a saturable and a non-saturable uptake component, (1) V=Vmax · [S]/Km +[S]+P · [S] where V is the substrate uptake rate; Vmax is the maximal uptake rate; P is a constant related to non-saturable apparent uptake, i.e., factors such as passive diffusion, unspecific binding and residual compound present after washing steps, and [S] is the substrate concentration (µM). […] Assuming competitive interaction, equilibrium dissociation constants, Ki, were calculated from the IC50 value for each substrate/inhibitor pair, at substrate Km, using the Cheng–Prusoff equation [24].

[4] = 200 µM acamprosate, 10 min, Lab. 1

Compound: CC(=O)NCCCS(=O)(=O)O [acamprosate, acetylhomotaurinate]
- inhibition of substrate transport via TAUT (TAUT): did not inhibit
- decrease in cell viability (HEK293-Flp-In mock cells): ≤ 10%
- inhibition of substrate transport via B^0,+AT/rBAT (B^0,+AT/rBAT): did not inhibit
- DDI Index, PAH (OAT1 [1]; IV bolus, 333 mg): 0.12–0.53 *
- DDI Index, PAH (OAT1 [1]; IV bolus, 666 mg): 0.17–0.75 *
- DDI Index, PAH (OAT1 [1]; IV bolus, 710 mg): 0.19–0.80 *
- DDI Index, PAH (OAT1 [1]; IV bolus, 1420 mg): 0.40–1.69 *
- DDI Index, PAH (OAT1 [1]; IV bolus, 2130 mg): 0.62–2.68 *
- DDI Index, PAH (OAT1 [1]; oral solution, 333 mg): 0.00–0.01
- DDI Index, PAH (OAT1 [1]; oral solution, 666 mg): 0.00–0.01
- DDI Index, PAH (OAT1 [1]; oral solution, 1332 mg): 0.00–0.02
- DDI Index, PAH (OAT1 [1]; oral solution, 2664 mg): 0.01–0.03
- DDI Index, PAH (OAT1 [1]; oral tablet, 666 mg): 0.00–0.00
- DDI Index, PAH (OAT1 [1]; oral tablet, 1332 mg): 0.001–0.01
- DDI index, substrate PAH (OAT1 [1]; oral administration of inhibitor, range over doses): 0.001–0.008
- ionized at the assay pH [2]: > 99%
- inhibition of substrate transport via ASBT (ASBT): did not inhibit
- acamprosate uptake in OAT1 expressing cells compared to mock and OAT3 expressing cells (OAT1 [3]; [4]): statistically significantly higher
- acamprosate uptake rate in OAT1 cells relative to mock-transfected cells (OAT1 [3]; [4]): approximately 20 fold
- P, non-saturable apparent uptake constant (OAT1 [3]; HEK293-Flp-In OAT1 cells, Lab. 1): 0.35 ± 0.04 µL∙mg protein^−1∙min^−1
- uptake by OAT1 as compared to OAT3 (OAT1 [3]; criterion of relatively OAT1-specific substrate): at least 5 ×
